Experimental data published in the NIST ThermoML archive (doi:10.1016/j.jct.2016.11.002).
Several values for one entry are separate records, joined by “and”; a condition that tells them apart may be missing. Identical values can stand only once.

Key:
[1] = 100 kPa, Liquid; for speed of sound: Frequency=3 MHz, Single path-length method; for mass density: Vibrating tube method
[2] = refractive index (Na D-line) (dimensionless); conditions: 100 kPa, Liquid, Standard Abbe refractometry
[3] = xn = mol fraction of the nth substance listed; conditions: 100 kPa, Liquid, x1 = 1; for speed of sound: Frequency=3 MHz, Single path-length method; for mass density: Vibrating tube method
[4] = refractive index (Na D-line) (dimensionless); xn = mol fraction of the nth substance listed; conditions: 100 kPa, Liquid, Standard Abbe refractometry, x1 = 1

CCOCCO [2-ethoxyethan-1-ol]
Conditions | mass density, [1] [kg/m3] | refractive index, [2] | speed of sound, [1]
298.15 K | 925.54 | 1.4055 | 1302.8 m/s
303.15 K | 920.99 | 1.4042 | 1285 m/s
308.15 K | 916.41 | 1.4028 | 1267.3 m/s
313.15 K | 911.8 | 1.4016 | 1249.6 m/s
318.15 K | 907.15 | 1.4001 | 1232 m/s and 1231.5 m/s
323.15 K | 902.46 | 1.3988 | 1214.3 m/s

COCCO [2-methoxyethan-1-ol]
Conditions | mass density, [1] [kg/m3] | refractive index, [2] | speed of sound, [1] [m/s]
298.15 K | 960.32 | 1.4001 | 1342.1
303.15 K | 955.71 | 1.3981 | 1324.7
308.15 K | 951.08 | 1.3961 | 1307.4
313.15 K | 946.42 | 1.3943 | 1290
318.15 K | 941.72 | 1.3922 | 1272.7
323.15 K | 936.89 | 1.3902 | 1255.4

CCOC(=O)OCC [diethyl carbonate] + CCCOCCO
Conditions | mass density, [3] [kg/m3] | refractive index, [4] | speed of sound, [3] [m/s]
298.15 K | 969.1 | 1.3825 | 1177.5
303.15 K | 963.47 | 1.3802 | 1156.9
308.15 K | 957.81 | 1.3779 | 1136.6
313.15 K | 952.13 | 1.3756 | 1116.5
318.15 K | 946.43 | 1.3733 | 1096.5
323.15 K | 940.69 | 1.371 | 1076.7

CCOC(=O)OCC [diethyl carbonate] + COCCO
Conditions | mass density, [3] [kg/m3] | refractive index, [4] | speed of sound, [3] [m/s]
298.15 K | 969.1 | 1.3825 | 1177.5
303.15 K | 963.47 | 1.3802 | 1156.9
308.15 K | 957.81 | 1.3779 | 1136.6
313.15 K | 952.13 | 1.3756 | 1116.5
318.15 K | 946.43 | 1.3733 | 1096.5
323.15 K | 940.69 | 1.371 | 1076.7

CCOC(=O)OCC [diethyl carbonate] + CCOCCO
Conditions | mass density, [3] [kg/m3] | refractive index, [4] | speed of sound, [3] [m/s]
298.15 K | 969.1 | 1.3825 | 1177.5
303.15 K | 963.47 | 1.3802 | 1156.9
308.15 K | 957.81 | 1.3779 | 1136.6
313.15 K | 952.13 | 1.3756 | 1116.5
318.15 K | 946.43 | 1.3733 | 1096.5
323.15 K | 940.69 | 1.371 | 1076.7
